From patent publication US11633484B2, “Method for improving the oral bioavailability of a drug” (PharmaCytics B.V., priority 2017, dated 2023)

Tests used:
β-glucosidase = assay: Enzymatic removal of the glucose moiety (treatment with β-glucosidase), conversion to parent drug
[1] = Determination of oral bioavailability of Kalydeco conjugates; type: in vivo, Beagle dogs; parameters: key to AUClast (total amount Kalydeco and conjugate): AUClast value for Kalydeco; +: 1.1-6-fold increase compared to Kalydeco; conditions: for AUClast (total amount Kalydeco and conjugate): as Example 11 (Beagle dogs, oral gavage), fold increase compared to Kalydeco
Protocol: (§1) Relative and absolute bioavailability may be determined in different animal models and according to different protocols. The following protocol is typical for determining bioavailability in female Beagle dogs. The animals were deprived from food over a time period of 8 h prior to administration and 2 h after administration of the test molecules. Water was supplied without limitation.
(§2) On the study day, the animals received test molecules, at a single dose of 15 μmole/kg, by oral gavage, formulated in mixtures of propylene glycol, ethanol and 0.9% NaCl+5% mannitol in water. Blood samples were collected from the jugular vein on the following time points: 0.25, 0.5, 1, 2, 4, 8 and 24 hours after dosing.
(§3) Pharmacokinetic parameters were calculated from concentration versus time data using non-compartmental pharmacokinetic methods using Phoenix pharmacokinetic software. Data are compared to Zytiga to establish improvement of its oral bioavailability by the Abiraterone conjugates.
In a similar fashion as described in Example 11, the bioavailability increase of Kalydeco conjugate 17 was determined.

[2] = Determination of oral bioavailability of Abiraterone conjugates (plasma AUClast after oral gavage); type: in vivo; parameters: key to AUClast (total amount abiraterone and conjugate): AUClast value for Zytiga; +: 1.1-6-fold increase compared to Zytiga; ++: >7-fold increase compared to Zytiga; conditions: female Beagle dogs; for Conversion rate to Abiraterone: AUClast Abiraterone/AUClast conjugate + AUClast Abiraterone × 100%, oral 15 μmole/kg; for AUClast (total amount abiraterone and conjugate): single dose 15 μmole/kg by oral gavage, 24 h, fold increase compared to Zytiga
Protocol: as §1, §2, §3

[3] = oral administration, rat; cited from earlier work
[4] = orally administered; cited from earlier work
[5] = Determination of oral bioavailability of Rotigotine conjugate; type: in vivo, Beagle dogs; parameters: key to AUClast (total amount Rotigotine and conjugate): AUClast value for Rotigotine; ++: >6-fold increase compared to Rotigotine; conditions: for AUClast (total amount Rotigotine and conjugate): as Example 11 (Beagle dogs, oral gavage), fold increase compared to Rotigotine
Protocol: as §1, §2, §3
In a similar fashion as described in Example 11, the bioavailability increase of Rotigotine conjugate 28 was determined.

xenograft mouse model = conditions: oral administration; cited from earlier work
[6] = oral application in rat; cited from earlier work

Structure (SMILES)	Conversion rate to Abiraterone [2]	AUClast (total amount abiraterone and conjugate) [2]	also measured
CCCN(COc1cc(NC(=O)c2c[nH]c3ccccc3c2=O)c(C(C)(C)C)cc1C(C)(C)C)C(=O)O[C@@H]1O[C@H](CO)[C@@H](O)[C@H](O)[C@H]1O [Compound 17]			Conversion to Abiraterone and Kalydeco, respectively, upon treatment with β-glucosidase (β-glucosidase): readily converted; Conversion rate to Kalydeco ([1]; AUClast Kalydeco/AUClast conjugate + AUClast Kalydeco × 100%, as Example 11): ++++ (>51%); AUClast (total amount Kalydeco and conjugate) [1]: + (1.1-6-fold increase compared to Kalydeco)
C=CCN(CO[C@H]1CC[C@@]2(C)C(=CCC3[C@@H]2CC[C@]2(C)C(c4cccnc4)=CC[C@@H]32)C1)C(=O)O[C@@H]1O[C@H](CO)C(O)[C@H](O)C1O (stereo partly drawn) [Compound 7l]	+++ (41-50%)	++ (>7-fold increase compared to Zytiga)	
CO[C@@H]1O[C@H](COC(=O)NC(N)=NC(=O)Cc2c(Cl)cccc2Cl)[C@@H](O)[C@H](O)[C@H]1O			Relative Cmax compared to guanfacine [3]: lower value
C[C@]12CC[C@H](OCN(C(=O)O[C@@H]3O[C@H](CO)C(O)[C@H](O)C3O)C3CCC3)CC1=CCC1[C@@H]2CC[C@]2(C)C(c3cccnc3)=CC[C@@H]12 (stereo partly drawn) [Compound 7g]	++ (21-40%)	++ (>7-fold increase compared to Zytiga)	
C[C@@H]1C[C@H]2[C@@H]3CCC4=CC(=O)C=C[C@]4(C)[C@@]3(F)[C@@H](O)C[C@]2(C)[C@@]1(O)C(=O)COC1O[C@H](CO)[C@@H](O)[C@H](O)[C@H]1O (stereo partly drawn) [dexamethasone glucoside]			Fraction of oral dose that reached the caecum as a free steroid [4]: ~60%
CCCN(COc1cccc2c1CC[C@H](N(CCC)CCc1cccs1)C2)C(=O)O[C@@H]1O[C@H](CO)[C@@H](O)[C@H](O)[C@H]1O [Compound 28]			Conversion rate to Rotigotine ([5]; AUClast Rotigotine/(AUClast conjugate + AUClast Rotigotine) × 100%, as Example 11): ++++ (>51%); AUClast (total amount Rotigotine and conjugate) [5]: ++ (>6-fold increase compared to Rotigotine)
CN(CO[C@H]1CC[C@@]2(C)C(=CCC3[C@@H]2CC[C@]2(C)C(c4cccnc4)=CC[C@@H]32)C1)C(=O)O[C@@H]1O[C@H](CO)C(O)[C@H](O)C1O (stereo partly drawn) [Compound 7a]	+++ (41-50%)		
CN(CO[C@H]1CC[C@@]2(C)C(=CCC3[C@@H]2CC[C@]2(C)C(c4cccnc4)=CC[C@@H]32)C1)C(=O)O[C@@H]1O[C@H](CO)C(O)[C@H](O)C1O (stereo partly drawn) [Compound 13]	++ (21-40%)	++ (>7-fold increase compared to Zytiga)	
COc1cc(C)c2cc(O[C@@H]3O[C@H](CO)[C@@H](O)[C@H](O)[C@H]3O)c(C)cc2c1C(C)C			Reduction of tumor volume (xenograft mouse model): 50%
C[C@]12CC[C@H](O[C@@H]3O[C@H](CO)[C@@H](O)[C@H](O)[C@H]3O)CC1=CCC1[C@@H]2CC[C@]2(C)C(c3cccnc3)=CC[C@@H]12 (stereo partly drawn) [3-O-β-Glucoside (33), 3-O-β-D-Glucopyranosyl-abiraterone, reference compound]	+ (1-20%)	+ (1.1-6-fold increase compared to Zytiga)	
CC(C)(C)c1cc(C(C)(C)C)c(NC(=O)c2c[nH]c3ccccc3c2=O)cc1O [Kalydeco, reference compound]			AUClast (total amount Kalydeco and conjugate) [1]: o
COc1cc(C)c2cc(O)c(C)cc2c1C(C)C [7-hydroxy-3-methoxy cadalene]			Reduction of tumor volume (xenograft mouse model): did not show tumor volume reduction
CC(=O)O[C@H]1CC[C@@]2(C)C(=CC[C@@H]3[C@@H]2CC[C@]2(C)C(c4cccnc4)=CC[C@@H]32)C1 [3-O-Acetate (Zytiga), reference compound]		o	
C[C@]12C=CC(=O)C=C1CC[C@@H]1[C@@H]2[C@@H](O)C[C@@]2(C)[C@H]1CC[C@]2(O)C(=O)CO[C@@H]1O[C@H](CO)[C@@H](O)[C@H](O)[C@H]1O [prednisolone-21-O-β-D-glucoside]			Increase of serum levels with respect to prednisolone [6]: two-fold increase
CCCN(CO[C@H]1CC[C@@]2(C)C(=CCC3[C@@H]2CC[C@]2(C)C(c4cccnc4)=CC[C@@H]32)C1)C(=O)O[C@@H]1O[C@H](CO)C(O)[C@H](O)C1O (stereo partly drawn) [Compound 7c]	+++ (41-50%)	++ (>7-fold increase compared to Zytiga)	Conversion to Abiraterone and Kalydeco, respectively, upon treatment with β-glucosidase (β-glucosidase): readily converted
CCN(CO[C@H]1CC[C@@]2(C)C(=CCC3[C@@H]2CC[C@]2(C)C(c4cccnc4)=CC[C@@H]32)C1)C(=O)O[C@@H]1O[C@H](CO)C(O)[C@H](O)C1O (stereo partly drawn) [Compound 7b]	++++ (>51%)	+ (1.1-6-fold increase compared to Zytiga)	
CCCN(CCc1cccs1)[C@H]1CCc2c(O)cccc2C1 [Rotigotine, reference compound]			AUClast (total amount Rotigotine and conjugate) [5]: o
